Values of other authors in patent US20100144679A1, “MEDICATION KITS AND FORMULATIONS FOR PREVENTING, TREATING OR REDUCING SECONDARY FRACTURES AFTER PREVIOUS FRACTURE” (DUKE UNIVERSITY, priority 2007, published 2010).

Experiments:
[1] = patients with reduced creatinine clearances
[2] = test system: bone resorption
[3] = test system: bone resorption; remark: listed apart in the source

Row | SMILES | fall rates [1] | concentrations at which bone resorption is inhibited in vitro [2] | untoward effects on bone formation or mineralization ([3]; at the concentrations and doses that inhibit bone resorption) | doses at which bone resorption is inhibited in vivo ([3]; in vivo)
1 | C=C1/C(=C\C=C2/CCC[C@]3(C)[C@@H]([C@H](C)CCCC(C)(C)O)CC[C@@H]23)C[C@@H](O)C[C@@H]1O [calcitriol] | reduces fall rates | – | – | –
2 | O=P(O)(O)C(O)(Cn1ccnc1)P(=O)(O)O [zoledronic acid, 1-hydroxy-2-(imidazol-1-yl)ethane-1,1-d-iphosphonic acid] | – | 0.3 to 30 nM | without exerting any untoward effects on either bone formation or mineralization | 0.3 to 30 µg/kg
